≈ marks a conversion by molar mass, not a printed value.

For the series the following is noted: buffer; pH 7.4; 200.0 µM.
Compound `COC(=O)Cc1c(O)ccn(Cc2ccc3c(c2)OCO3)c1=O` returned a solubility (kinetic) above 47.6 µg/mL.

In turn, `COC(=O)CC1=NN(c2nc3ccccc3s2)C(=O)/C1=C/N(C)C` returned a solubility (kinetic) above 51.7 µg/mL.

Turning to `c1ccc2oc(-c3csc(N4CCOCC4)n3)cc2c1`, the solubility (kinetic) turned out to be 4.7 µg/mL (≈ 16.4 µM).

With `COc1ccccc1N1CCN(CC(=O)c2c[nH]c3ccccc23)CC1`, the kinetic solubility amounted to 6.6 µg/mL (≈ 18.9 µM). This solubility kinetic and that of the compound before are within 1.5-fold of each other.

As to `CC(Sc1nncs1)C(=O)Nc1ccc(S(=O)(=O)Nc2ncccn2)cc1` (configuration not stated), the solubility (kinetic) is above 63.4 µg/mL.

Take `Cc1cc(Cl)nc(Cl)c1C(=O)NC(=O)NCCC(C)C`: the solubility (kinetic) amounted to 34.7 µg/mL (≈ 109 µM).

As for `Br.Fc1ccc(-c2csc(NC3=NCCC3)n2)cc1`, the kinetic solubility worked out at 43 µg/mL.

`O=C(CSc1ccc(Br)cc1)NC1CCCCCC1` showed a kinetic solubility of 3.4 µg/mL (≈ 9.93 µM).

The compound `CC1(C)CC2(CCCN(C(=S)Nc3ccccc3)C2)CCO1` (configuration not stated) came in with a kinetic solubility of 46.4 µg/mL (≈ 146 µM).

For the compound `Cc1ccc(NC(=O)Nc2cccnc2)cc1`, the kinetic solubility was above 34.1 µg/mL.

Regarding `CC(=O)N1CCN(C(=O)C2CCN(S(=O)(=O)c3ccccc3C(F)(F)F)CC2)CC1`, the kinetic solubility was above 67.1 µg/mL.

`O=C(N/N=C/C1CCCCC1)c1ccccc1-n1cccc1` yielded a solubility (kinetic) above 44.3 µg/mL.

In the case of `O=C(CN1C(=O)COc2ccccc21)N1CCOCC1`, the kinetic solubility is above 41.4 µg/mL.

For the compound `C=CCNC(=O)C(=O)NCCCN1CCOCC1`, the kinetic solubility was above 38.3 µg/mL.

For the compound `NC(=O)CC(NSc1ccccc1[N+](=O)[O-])C(=O)O` (configuration not stated), the solubility (kinetic) was 36.9 µg/mL (≈ 129 µM).

`COc1ccc(C(=O)NCC2(c3ccccc3)CCOCC2)cc1` registered a kinetic solubility of 47.1 µg/mL (≈ 145 µM).

`C=CCNC(=O)c1cc2sccc2n1C` displayed a solubility (kinetic) above 33 µg/mL.

As to `COc1ccc(-c2csc(Nc3ncccn3)n2)cc1C`, the kinetic solubility was below 0.1 µg/mL.

Take `COC(=O)CCc1nc2cc(Cl)ccc2n(Cc2ccccc2)c1=O`: the kinetic solubility stood at 1.4 µg/mL (≈ 3.92 µM).

Consider `Cc1ccc(S(=O)(=O)Nc2cccc(Cl)c2)cc1NC(=O)C1CC1`, for which the kinetic solubility was above 54.7 µg/mL.

As for `CC(=O)Nc1cccc(NC(=O)CCNC(=O)c2ccccc2)c1`, the solubility (kinetic) is above 48.8 µg/mL.

For the compound `O=C(Cc1ccc([N+](=O)[O-])cc1)NC1CCCCCC1`, the kinetic solubility came out at 15 µg/mL (≈ 54.3 µM).

In turn, `Cn1c(O)c(C(=Nc2ccc(F)cc2)c2ccccc2)c(=O)n(C)c1=O` had a kinetic solubility of 7.4 µg/mL (≈ 20.9 µM).

For `Cc1ccc(F)cc1NC(=O)c1ccc(OCC2CCCO2)cc1` (configuration not stated), the kinetic solubility is above 49.4 µg/mL.

For `COc1ccc(NC(=O)c2ccccc2C)cc1`, the solubility (kinetic) stood at 27.1 µg/mL (≈ 112 µM).

In turn, `COc1cc(/C=C2\SC(N3CCC(C)CC3)=NC2=O)ccc1O` returned a kinetic solubility above 49.9 µg/mL.

`Cc1ccc(NC(=O)C(c2ccccc2)c2ccccc2)c(O)c1` registered a solubility (kinetic) of 2.1 µg/mL (≈ 6.62 µM).

The compound `N#C/C(=C\c1ccc(O)cc1)C(=O)NCc1ccccc1` had a kinetic solubility of 2.4 µg/mL (≈ 8.62 µM).

In turn, `COc1ccc(NC(=O)N2CCCC2C(=O)NC2CCCC2)cc1` (configuration not stated) displayed a solubility (kinetic) above 49.7 µg/mL.

Regarding `O=C(NC1=NCCS1)c1ccccc1`, the solubility (kinetic) came out at 21.4 µg/mL (≈ 104 µM).

Regarding `O=S(=O)(Cc1cc(Cl)nc(-c2cccnc2)n1)c1ccccc1`, the solubility (kinetic) is 40.7 µg/mL (≈ 118 µM).

With `Fc1ccc(-n2cc(-c3ccccc3)[n+]3c2SCC3)cc1.[Br-]`, the kinetic solubility is above 56.6 µg/mL.

`Nc1cc(N)nc(SCC(=O)Nc2ccc3c(c2)OCO3)n1` came in with a solubility (kinetic) of 47.2 µg/mL (≈ 148 µM).

`Cc1cccc(NC(=O)CNC(=O)c2cccc(-n3cccc3)c2)c1C` came in with a solubility (kinetic) of 8.6 µg/mL (≈ 24.8 µM). Against the preceding compound, the solubility kinetic is about 5.5-fold lower.

In the case of `Cc1ccc(/C=C2\SC(=S)N(C3CCS(=O)(=O)C3)C2=O)cc1` (configuration not stated), the kinetic solubility is below 0.8 µg/mL.

In turn, `c1ccc(-c2cn(-c3ccccc3)c3ncnc(N4CCCCC4)c23)cc1` gave a solubility (kinetic) below 0.2 µg/mL.

For `Cc1cc(C)c(S(=O)(=O)NCc2ccc3c(c2)OCO3)c(C)c1`, the solubility (kinetic) was determined as 1.7 µg/mL (≈ 5.1 µM).

In the case of `CN(Cc1ccccc1)C(=O)c1cc(=O)[nH]c2ccccc12`, the solubility (kinetic) is above 43.9 µg/mL.

`CCN(CC)CCC#CC1(O)c2ccccc2-c2ccccc21` gave a kinetic solubility above 45.8 µg/mL.

The compound `CC(C)(C)c1ccc(SCCc2ccccn2)cc1` gave a kinetic solubility of 1.1 µg/mL (≈ 4.05 µM).

Consider `Cc1nc2cc(NS(=O)(=O)c3ccccc3)ccc2n1C`, for which the solubility (kinetic) came out at 15.6 µg/mL (≈ 51.8 µM).

For `CC1CCN(C(=O)c2ccc3c(c2)NC(=O)CN3)CC1`, the solubility (kinetic) is above 41 µg/mL.

For the compound `COCCSc1ccccc1C(=O)Nc1cc([N+](=O)[O-])ccc1OC`, the solubility (kinetic) worked out at 4.1 µg/mL (≈ 11.3 µM).

As to `COc1ccccc1C(=O)NCC(=O)N1CC=C(c2ccccc2)CC1`, the solubility (kinetic) was found to be 4.5 µg/mL (≈ 12.8 µM).

In turn, `O=C(c1cc2cc(F)ccc2[nH]1)N1CCc2ccccc2C1` gave a solubility (kinetic) of 0.9 µg/mL (≈ 3.06 µM).

The compound `CN(C)c1cccc(C(=O)NC2CCCc3ccccc32)c1` (configuration not stated) displayed a solubility (kinetic) of 11.6 µg/mL (≈ 39.4 µM).

For `C#CCn1c(CCNC(=O)c2ccco2)nc2ccccc21`, the solubility (kinetic) is above 44 µg/mL.

For the compound `O=C(CC(=O)Nc1ccccc1)Nc1ccccc1`, the kinetic solubility amounted to 8.4 µg/mL (≈ 33 µM).

Take `O=C(O/N=C1\CCS(=O)(=O)c2sccc21)C1CC1`: the kinetic solubility is above 42.8 µg/mL.

Compound `O=C(O)c1csc(-c2ccc(Cl)cc2)n1` gave a solubility (kinetic) above 36 µg/mL.

Compound `O=C(CCS(=O)(=O)c1ccccc1)Nc1ccccn1` showed a kinetic solubility above 43.6 µg/mL.

`COC(=O)/C(=C\c1ccc(O)cc1)c1nc2ccccc2[nH]1`: the kinetic solubility was 39.6 µg/mL (≈ 135 µM).

A word on the kinetic solubility: it is solubility judged after dilution from a stock solution rather than from solid.

Values taken from PubChem BioAssay AID1996.
